Structures can show the parent of a compound that is named as a salt. Where two headings read alike, the source gives them in different places. A value given as a limit tells only on which side of the number the result lay.

The values below come from US12371404B2, “Fused bicyclic alkylene linked imidodicarbonimidic diamides, methods for synthesis, and uses in therapy” (NovaTarg, Inc., priority 2016, dated 2025).

Assay [1] relates to control (Neo) cells. As to the kind of experiment: Oxygen consumption rate (OCR) assay, control (Neo) HEK293 cells. The assay is classed as cell-based. The settings on record: Homo sapiens, read-out: Oxygen Consumption Rate (OCR) IC50, Neo. The source says:
(§1) Diabetologia 2011, 54 (12): 3101-3110, each incorporated by reference with regard to such testing. The compounds of the present invention are similarly tested in an oxygen consumption rate (OCR) assay to evaluate the functional activity of test compounds in cells.
(§2) In brief, the assay uses HEK293 cells stably transfected with the human OCT1, OCT2, OCT3, PMAT, or MATE1 transporters to determine a compound's relative transporter selectivity and its effect on the rate of oxygen consumption relative to control (Neo) cells. The MitoXpress Xtra oxygen-sensitive fluorophore is used to monitor oxygen consumption rates in the presence and absence of compound treatments. The analogs were tested at eight (8) different concentrations in triplicate to determine a relative IC50 value.
(§3) A summary description of the protocol is as follows:
(§4) HEK293 cells transformed with human organic cation transporters were plated in collagen coated, 96-well black-walled microclear plates (Greiner-Bio 1, #655956) at 60,000 cells per well in growth medium (DMEM (LG), 10% FBS, 400 μg/ml G418). Cells were incubated overnight to allow attachment. The outer columns (1 and 12) are not seeded with cells, as controls. The next day, plating medium was removed and replaced with 150 μL of assay medium (DMEM/F12 (PRF), 5% FBS, antibiotics) containing compound dilutions. A 3-fold serial dilution was prepared in the assay medium and transferred to the empty wells. The outer columns and column 11 received 150 μL of assay medium only. 10 μL of MitoXpress Xtra reagent was added to each test well, and 100 μL of pre-warmed mineral oil was overlayed in each well to create a seal. Dual read time-resolved fluorescence (BMG FluoStar Galaxy reader) was measured over 2 hours with measurements taken every 2 minutes. Excitation is 340 nm, Emission is 650 nm. For lifetime analysis, two measurements per well were taken: 1) delay of 30 μs, with a window of 30 μs; and 2) delay of 70 μs with a window of 30 μs. Background TRF values from A1-D1 were subtracted from all readings. A ratiometric analysis was performed to determine changes in the Lifetime fluorescence signal:Lifetime (μs) [T]=(D2−D1)/ln(W1/W2), where D is delay; W is fluorescence window value at each time point. Lifetime slopes were calculated using each Lifetime measurement over time. IC50 values were determined by plotting lifetime slope values vs. compound concentration.

For assay [2], the target named is T1, human MATE1 (Homo sapiens, UniProt Q96FL8).
T1 sequence (Q96FL8 1-570): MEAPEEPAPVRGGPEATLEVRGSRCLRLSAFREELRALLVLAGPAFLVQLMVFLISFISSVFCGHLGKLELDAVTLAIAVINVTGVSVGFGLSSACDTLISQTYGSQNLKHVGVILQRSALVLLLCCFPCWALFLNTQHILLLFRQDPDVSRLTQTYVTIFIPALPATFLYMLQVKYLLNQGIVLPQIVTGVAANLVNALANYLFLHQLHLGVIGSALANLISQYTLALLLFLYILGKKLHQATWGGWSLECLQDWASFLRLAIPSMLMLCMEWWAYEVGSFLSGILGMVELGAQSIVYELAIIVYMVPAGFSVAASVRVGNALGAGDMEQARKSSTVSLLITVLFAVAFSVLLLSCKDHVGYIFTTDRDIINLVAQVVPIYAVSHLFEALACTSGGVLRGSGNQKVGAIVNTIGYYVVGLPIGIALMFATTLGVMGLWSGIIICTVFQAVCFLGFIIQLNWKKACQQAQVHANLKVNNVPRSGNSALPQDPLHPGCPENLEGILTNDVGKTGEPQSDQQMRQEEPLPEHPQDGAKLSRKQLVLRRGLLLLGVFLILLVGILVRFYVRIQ
As to the kind of experiment: Oxygen consumption rate (OCR) assay, HEK293 cells transfected with MATE1. The following applies: for inhibition at 1000 µM: HEK293, read-out: Oxygen Consumption Rate (OCR), MATE 1, % Inhibition at 1000 μM test concentration.
Source text: The compounds of the present invention are similarly tested in an oxygen consumption rate (OCR) assay to evaluate the functional activity of test compounds in cells.
as §2, §3
as §4, with “Cells” for “HEK293 cells transformed with human organic cation transporters were plated in collagen coated, 96-well black-walled microclear plates (Greiner-Bio 1, #655956) at 60,000 cells per well in growth medium (DMEM (LG), 10% FBS, 400 μg/ml G418). Cells”

The target in assay [3] is T2, human PMAT (Homo sapiens, UniProt Q7RTT9).
T2 construct: expressed in transfected cells; host or cells: HEK293
T2 sequence (Q7RTT9 1-530): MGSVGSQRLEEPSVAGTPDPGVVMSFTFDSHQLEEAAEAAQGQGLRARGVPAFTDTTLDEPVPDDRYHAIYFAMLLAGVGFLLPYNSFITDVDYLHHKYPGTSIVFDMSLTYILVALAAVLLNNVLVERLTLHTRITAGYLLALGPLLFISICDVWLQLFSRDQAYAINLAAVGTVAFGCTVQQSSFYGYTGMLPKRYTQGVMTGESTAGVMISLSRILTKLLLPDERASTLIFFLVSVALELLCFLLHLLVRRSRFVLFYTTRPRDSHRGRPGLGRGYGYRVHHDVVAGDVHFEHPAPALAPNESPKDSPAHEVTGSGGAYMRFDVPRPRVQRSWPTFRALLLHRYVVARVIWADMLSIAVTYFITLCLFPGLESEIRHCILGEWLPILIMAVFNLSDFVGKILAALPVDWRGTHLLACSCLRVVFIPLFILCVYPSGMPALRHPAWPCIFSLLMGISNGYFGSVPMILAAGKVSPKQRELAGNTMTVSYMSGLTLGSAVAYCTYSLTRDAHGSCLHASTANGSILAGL
As to the kind of experiment: Oxygen consumption rate (OCR) assay, HEK293 cells transfected with PMAT. The assay is classed as cell-based. The following applies: for inhibition at 10 µM: HEK293 cells with human PMAT.
Source text: as §1, §2, §3, §4

Where [4] appears, read: control (Neo) HEK293 cells, MitoXpress Xtra, 2 hours.

As for `N=C(N)NC(=N)NCCc1c[nH]c2c(Cl)cccc12` [Ex 36, 1-[2-(7-chloro-1H-indol-3-yl)ethyl]imidodicarbonimide diamide, trifluoroacetic acid salt], the results for the IC50 in assay [1] (setting [4]) and in assay [2] were 409 µM and 26 µM, respectively. Moreover, the inhibition at 10 µM in assay [3] worked out at 55%.

Consider `CC(C)(CNC(=N)NC(=N)N)c1c[nH]c2ccccc12` [Ex 8], for which the IC50 in assay [1] (setting [4]) is over 1000 µM. In addition, the inhibition at 1000 µM in assay [2] stood at 31%. Also, the inhibition at 10 µM in assay [3] was determined as 20%.

`N=C(N)NC(=N)NCCc1c[nH]c2c(F)c(F)c(F)cc12` [Ex 41, 1-[2-(5,6,7-trifluoro-1H-indol-3-yl)ethyl]imidodicarbonimide diamide, trifluoroacetic acid salt]: the IC50 in assay [1] (HEK293, 2 h) was 460 µM; in assay [2], 675 µM; in assay [3], 6 µM.

`N=C(N)NC(=N)NCCc1c[nH]c2ncc(F)cc12` [Ex 43, 1-(2-(5-fluoro-1H-pyrrolo[2,3-b]pyridin-3-yl)ethyl)imidodicarbonimide diamide, trifluoroacetic acid salt]: the IC50 came to 11000 µM in assay [1] (setting [4]); 2230 µM in assay [2]; 23 µM in assay [3] (HEK293 cells stably transfected with human PMAT, MitoXpress Xtra, 2 hours, read-out: Oxygen Consumption Rate (OCR) IC50, PMAT).

Take `CN(C)C(=N)NC(=N)NCCc1c[nH]c2cc(F)ccc12` [Ex 23, 3-(2-(6-fluoro-1H-indol-3-yl)ethyl)-1,1-dimethyl imidodicarbonimide diamide hydrochloride]: the IC50 was over 3000 µM in assay [1] (setting [4]) and over 10000 µM in assay [2]. Further, the inhibition at 10 µM in assay [3] was found to be 4%.

On to `N=C(N)NC(=N)NCCc1c[nH]c2c(F)c(F)c(F)c(F)c12` [Ex 42, 1-[2-(4,5,6,7-tetrafluoro-1H-indol-3-yl)ethyl]imidodicarbonimide diamide, trifluoroacetic acid salt], for which the IC50 was determined as 129 µM in assay [1] (HEK293, 2 h); 183 µM in assay [2]; 5 µM in assay [3].

For the compound `N=C(N)NC(=N)NCCc1c[nH]c2ccc(Cl)cc12` [Ex 9, 1-[2-(5-chloro-1H-indol-3-yl)ethyl]imidodicarbonimide diamide, trifluoroacetic acid salt], the IC50 stood at 70 µM in assay [1] (setting [4]) and 171 µM in assay [2]. The inhibition at 10 µM in assay [3] came to 53%.

For `N=C(N)NC(=N)NCc1c[nH]c2ccccc12` [Ex 55, 1-[(1H-indol-3-yl)methyl]imidodicarbonimide diamide, trifluoroacetic acid salt], the results for the IC50 in assay [1] (setting [4]) and in assay [2] were 1400 µM and 1650 µM, respectively. Further, the inhibition at 10 µM in assay [3] stood at 10%.

`N=C(N)NC(=N)NCCc1c[nH]c2cc(F)c(F)c(F)c12` [Ex 50, 1-[2-(4,5,6-trifluoro-1H-indol-3-yl)ethyl]imidodicarbonimide diamide, trifluoroacetic acid salt]: the IC50 in assay [1] (setting [4]) is 181 µM; in assay [2], 102 µM.

As for `CN(C)C(=N)NC(=N)NCCc1c[nH]c2ccc(OC(F)(F)F)cc12` [Ex 33, 3-(2-(5-trifluoromethoxy-1H-indol-3-yl)ethyl)-1,1-dimethyl imidodicarbonimide diamide hydrochloride], the IC50 turned out to be 156 µM in assay [1] (setting [4]) and 218 µM in assay [2].

With `COc1cccc2[nH]cc(CCNC(=N)NC(=N)N)c12` [Ex 14, 1-[2-(4-methoxy-1H-indol-3-yl)ethyl]imidodicarbonimide diamide trifluoroacetic acid salt], the IC50 in assay [1] (setting [4]) turned out to be 1310 µM. Further, the inhibition at 1000 µM in assay [2] was determined as 39%.

With `N=C(N)NC(=N)NCCc1c[nH]c2c(Cl)cc(F)cc12` [Ex 38, 1-[2-(7-chloro-5-fluoro-1H-indol-3-yl)ethyl]imidodicarbonimide diamide, trifluoroacetic acid salt], the IC50 in assay [1] (setting [4]) was found to be 8760 µM; in assay [2], 2050 µM.

Consider `Cc1[nH]c2ncccc2c1CCNC(=N)NC(=N)N` [Ex 44, 1-(2-(2-methyl-1H-pyrrolo[2,3-b]pyridin-3-yl)ethyl)imidodicarbonimide diamide, trifluoroacetic acid salt], for which the IC50 in assay [1] (setting [4]) is 1660 µM; in assay [2], 474 µM.

As for `N=C(N)NC(=N)NCCc1c[nH]c2cc(F)c(Cl)cc12` [Ex 58, 1-[2-(5-chloro-6-fluoro-1H-indol-3-yl)ethyl]imidodicarbonimide diamide, trifluoroacetic acid salt], the IC50 turned out to be 191 µM in assay [1] (setting [4]) and 35 µM in assay [2].

Consider `Cc1cc2c(CCNC(=N)NC(=N)N)c[nH]c2cc1F` [Ex 37, 1-[2-(6-fluoro-5-methyl-1H-indol-3-yl)ethyl]imidodicarbonimide diamide, trifluoroacetic acid salt], for which the IC50 in assay [1] (setting [4]) came to 326 µM; in assay [2], 70 µM.

For the compound `N=C(N)NC(=N)NCCc1c[nH]c2ccc(C(F)(F)F)cc12` [Ex 25, 1-[2-(5-trifluoromethyl-1H-indol-3-yl)ethyl]imidodicarbonimide diamide, trifluoroacetic acid salt], the IC50 in assay [1] (setting [4]) came to 51 µM. Also, the inhibition at 1000 µM in assay [2] came out at 44%.

Take `N=C(N)NC(=N)NCCc1c[nH]c2c(F)cc(Cl)cc12` [Ex 64, 1-[2-(5-chloro-7-fluoro-1H-indol-3-yl)ethyl]imidodicarbonimide diamide, trifluoroacetic acid salt]: the IC50 in assay [1] (setting [4]) came to 282 µM; in assay [2], 370 µM.

With `CCOc1ccc2[nH]cc(CCNC(=N)NC(=N)N)c2c1` [Ex 12, 1-[2-(5-ethoxy-1H-indol-3-yl)ethyl]imidodicarbonimide diamide trifluoroacetic acid salt], the IC50 in assay [1] (setting [4]) is 1150 µM. In assay [2], the inhibition at 1000 µM was -8%.

As a reminder, the IC50 is the point on the concentration scale where inhibition reaches its midpoint.
